From US7192728B2, “Screening assays for agents that alter inhibitor of apoptosis (IAP) protein regulation of caspase activity” (The Burnham Institute, priority 1997, dated 2007)

B1: His6-S5a: recombinant control protein, His6-S5a proteasome subunit (protein, UniProt P55036 1-377, looked up)
26S proteasome non-ATPase …: MVLESTMVCVDNSEYMRNGDFLPTRLQAQQDAVNIVCHSKTRSNPENNVGLITLANDCEVLTTLTPDTGRILSKLHTVQPKGKITFCTGIRVAHLALKHRQGKNHKMRIIAFVGSPVEDNEKDLVKLAKRLKKEKVNVDIINFGEEEVNTEKLTAFVNTLNGKDGTGSHLVTVPPGPSLADALISSPILAGEGGAMLGLGASDFEFGVDPSADPELALALRVSMEEQRQRQEEEARRAAAASAAEAGIATTGTEDSDDALLKMTISQQEFGRTGLPDLSSMTEEEQIAYAMQMSLQGAEFGQAESADIDASSAMDTSEPAKEEDDYDVMQDPEFLQSVLENLPGVDPNNEAIRNAMGSLASQATKDGKKDKKEEDKK
modifications: His6 tag
notes: recombinant control protein, His6-S5a proteasome subunit

How the values were obtained:
[1] = test system: DEVD-pNA hydrolysis activity in 293 cell cytosolic extracts; experiment: Cytochrome c/dATP-induced caspase activation (DEVD hydrolysis) in 293 cell cytosolic extracts; assay type: biochemical, human; conditions: 293 extracts + cytochrome c/dATP; GST-XIAP 0.2 μM, GST controls 2 μM, His6-S5a 5 μM; untreated ≈0.01
Procedure: (§1) Cells were washed with ice cold buffer A (20 mM Hepes (pH 7.5), 10 mM KCl, 1.5 mM MgCl2, 1 mM EDTA, 1 mM DTT and 0.1 mM PMSF) and suspended in 1 vol buffer A, then incubated on ice for 20 min. 293 cells were disrupted by passage 15× through a 26 gauge needle and Jurkat T cells were disrupted by dounce homogenization in 2 ml using 15 strokes with a pestle B. Cell extracts (10–15 mg total protein/ml) were clarified by centrifugation at 16,000×g for 30 min, then the NaCl concentration was increased by 50 mM. Cytosolic fractions were used immediately or stored frozen at −80° C.
(§2) Caspase activity was assayed by release of either 7-amino-4-trifluoromethyl-coumarin (AFC) or p-nitroanilide (pNA) from benzylyoxycarbonyl-DEVD (SEQ ID NO: 2) or benzylyoxycarbonyl-YVAD (SEQ ID NO: 3) synthetic peptides using a Molecular Devices Spectromax 340 for AFC labeled peptides or Perkin/Elmer LS50B for pNA labeled peptides (see Example II; see, also, Zhou et al., supra, 1997). Cytosolic extracts from 293 cells or Jurkat T cells were used directly (negative control) or were treated with 1 μM cytochrome c and 1 mM dATP or with cytochrome c, dATP and 0.2 μM GST-XIAP. Additional control reactions were performed by substituting 2 μM GST-Bcl-2, GST-Bax, GST-NM23 or GST-CD40 cytosolic domain, or 5 μM His6-S5a protein for GST-XIAP. DEVD-pNA hydrolysis was measured at various times and multiple experiments were performed using several different GST-XIAP preparations.

[2] = test system: DEVD-pNA hydrolysis activity in Jurkat T cell cytosolic extracts; experiment: Cytochrome c/dATP-induced caspase activation (DEVD-pNA hydrolysis) in Jurkat T cell cytosolic extracts; assay type: biochemical; conditions: for DEVD-pNA hydrolysis, ΔA405 after 15 min: untreated ≈0.02; for DEVD-pNA hydrolysis, ΔA405 after 20 min: untreated ≈0.025
Procedure: as §1, §2

Molecule	DEVD-pNA hydrolysis, ΔA405 after 15 min [1]	DEVD-pNA hydrolysis, ΔA405 after 15 min [2]	DEVD-pNA hydrolysis, ΔA405 after 20 min [2]
GST-Bax: recombinant control protein, GST fusion of Bax [reference compound]	≈ 0.1	≈ 0.09	≈ 0.1
B1	≈ 0.1	≈ 0.09	≈ 0.1
